Values quoted from earlier work, collected in patent US20230151225A1, “BLENDING ZINC […] BASE MATERIALS IN ORDER TO CREATE QUICKLY APPLIED ANTI-MICROBIAL SURFACES” (CAO Group, Inc., priority 2020, published 2023).

zinc pyrithione
solubility in water: 8 ppm
